Measured values from patent US8853424B2 (Japan Science and Technology Agency, priority 2008, dated 2014).

How the values were obtained:
[1] = system: Truncated N-terminal huntington 150 Q-EGFP-Neuron 2a cells; experiment: Measurement of x-Fold (polyglutamine aggregation inhibitory activity); type: cell-based
Protocol: In the present invention, the polyglutamine aggregation inhibitory activity (x-Fold) can be measured, for example, by the method described in the Example.
The number of the aggregated cells, and the total number of cells were counted by Array Scan V T1 (manufactured by Cellomics, Pittuburg, USA), and the ratio of the aggregated cells to the total number of cells was determined (x-Fold). […]

transglutaminase (TGase) = experiment: Measurement of TG (TGase inhibitory activity, monodansyl cadaverine / N,N-dimethylcasein fluorescence, FDSS 3000); type: biochemical
Method in brief: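 Compound (1 μL of 10 mM stock) added to 0.1 mL reaction: 100 mM HEPES-NaOH pH 7.5, 1 mM CaCl2, 20 μM monodansyl cadaverine, 0.05 mg/mL N,N-dimethylcasein, 5 μg/mL TGase. Rate of fluorescence change at 340 nm measured; DMSO control set to 100; TG50 is the concentration halving activity.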

[2] = ratio of aggregated cells to total number of cells, compound 20 μM, 20 hr, almost 1 without compound, smaller = stronger inhibition
[3] = TGase activity with compound (10 mM, 1 μL in 0.1 ml enzyme reaction solution), DMSO control taken as 100
[4] = polyglutamine aggregation inhibitory activity, Table 1
[5] = TGase inhibitory activity value, Table 1
[6] = polyglutamine aggregation, Truncated N-terminal huntington 150 Q-EGFP-Neuron 2a cells
[7] = TGase inhibitory activity measurement, unit not given

Molecule | x-Fold [1, 2] | TGase activity remaining (% of DMSO control = 100) (transglutaminase (TGase); [3]) | x-Fold [1, 4] | TGase activity remaining (% of DMSO control = 100) (transglutaminase (TGase); [5]) | also measured
OB(c1cccc(Cl)c1)c1cccc(Cl)c1 [Example 241, di(3-chlorophenyl)borinic acid] | 1.10 | 67 | – | – | –
CN(C)CCOB(c1ccccc1)c1ccc(Oc2ccc(B(OCCN(C)C)c3ccc(CO)cc3)cc2)cc1 [Example 392, (4-(phenyl-N,N-dimethylaminoethoxyboryl)phenyl)(4′-(hydroxymethylphenyl-N,N-dimethylaminoethoxyboryl)phenyl)ether] | 0.91 | 83 | 0.91 | 83 | –
NCCCC(N)C(=O)OB(c1ccccc1)c1ccccc1 (centres unmarked) [Example 245, diphenyl(ornithine-O,N)borane] | 0.91 | 94 | – | – | x-Fold ([1]; polyglutamine aggregation inhibitory activity, Table 1, listed as 921): 0.91; TGase activity remaining (% of DMSO control = 100) (transglutaminase (TGase); TGase inhibitory activity value, Table 1, listed as 921): 94
OB(c1ccc(COCc2ccc(B(O)c3ccc(F)c(F)c3)cc2)cc1)c1ccc(F)c(F)c1 [Example 352, bis(4-(3,4-difluorophenylhydroxyboryl)benzyl)ether] | 1.02 | 97 | 1.02 | 97 | –
Cc1ccc(B(OC(=O)c2ccccn2)c2ccc(C)c(Cl)c2)cc1Cl [Example 281, di(3-chloro-4-methylphenyl)-(picolinate-O,N)borane] | 0.94 | 77 | – | – | –
OB(c1ccc(COCc2ccc(B(O)c3ccc(F)c(F)c3)cc2)cc1)c1ccc(F)c(F)c1 [Example 411, bis(4,4′-(3,4-difluorophenyl-hydroxyboryl)benzyl)ether] | 0.90 | 138 | – | – | x-Fold [1, 6]: 0.90; TGase activity remaining (% of DMSO control = 100) (transglutaminase (TGase); [7]): 138
Cc1ccc2cccc(OB(c3ccccc3)c3ccc(Oc4ccc(B(Oc5cccc6ccc(C)nc56)c5ccccc5)cc4)cc3)c2n1 [Example 477, bis(4,4′-(phenyl-2-methyl-8-quinolinooxyboryl)phenyl)ether] | 1.02 | 97 | – | – | x-Fold [1, 6]: 1.02; TGase activity remaining (% of DMSO control = 100) (transglutaminase (TGase); [7]): 97
O=C(OB(c1ccccc1)c1ccccc1)c1ccccn1 [Example 218, diphenyl(picolinate-O,N)borane] | 0.97 | 90 | 0.97 | 90 | –
Cc1ccc(B(OCCC2CCCCN2)c2ccc(C)c(Cl)c2)cc1Cl (centres unmarked) [Example 248] | 0.87 | 103 | – | – | –
CN(C)CCOB(c1ccccc1)c1ccc(COCc2ccc(B(OCCN(C)C)c3ccccc3)cc2)cc1 [Example 152, di(4,4′-phenyldimethylaminoethoxyboryl)benzylether] | 1.07 | – | – | – | x-Fold ([1]; polyglutamine aggregation inhibitory activity, Table 1, listed as 1073): 1.07; TGase activity remaining (% of DMSO control = 100) (transglutaminase (TGase); TGase inhibitory activity value, Table 1, listed as 1073): 54
Cc1cc(B(O)c2ccc(COCc3ccc(B(O)c4ccc(Cl)c(C)c4)cc3)cc2)ccc1Cl [Example 139, bis(4-chloro-3-methylphenylhydroxyboryl 4-benzyl)ether] | 0.88 | 122 | – | – | x-Fold ([1]; polyglutamine aggregation inhibitory activity, Table 1, listed as 611): 0.88; TGase activity remaining (% of DMSO control = 100) (transglutaminase (TGase); TGase inhibitory activity value, Table 1, listed as 611): 122
Cc1ccc(B(OC(=O)c2ccccn2)c2ccc(C)c(Cl)c2)cc1Cl [Example 221, di(3-chloro-4-methylphenyl)(2-pyridine carboxylate-O,N)borane] | 0.94 | 73 | – | – | –
Cc1ccc(B(OCC2CCCCN2C)c2ccc(C)c(Cl)c2)cc1Cl (centres unmarked) [Example 163, di(3-chloro-4-methylphenyl)N-methylpiperidinomethylborinate] | 1.00 | 109 | – | – | –
di(3-chloro-6-methyl-phenyl)(argininate-O,N)borane [Example 156] | 1.08 | 91 | 1.08 | 91 | –
Fc1cc(B(OCc2ccccn2)c2cc(F)c(F)c(F)c2)cc(F)c1F [Example 90, 2-pyridylmethyl bis(3,4,5-trifluorophenyl)borinate] | 0.81 | 93 | 0.81 | 93 | –
CC(C)CC(N)C(=O)OB(c1ccccc1)c1ccccc1 (centres unmarked) [Example 261, diphenyl(leucinate-O,N)borane] | 0.89 | 109 | 0.89 | 109 | –
Cc1ccc(B(OC(=O)c2ccccc2N)c2ccc(C)c(Cl)c2)cc1Cl [Example 180, di(3-chloro-4-methylphenyl)(anthranate-O,N)borane] | 0.98 | 35 | 0.98 | 35 | –
NCCOB(c1ccc(F)c(Cl)c1)c1ccc(F)c(Cl)c1 [Example 77, 2-aminoethyl-bis(3-chloro-4-fluorophenyl)borinate] | 0.91 | 98 | – | – | x-Fold ([1]; polyglutamine aggregation inhibitory activity, Table 1, listed as 6006): 0.91; TGase activity remaining (% of DMSO control = 100) (transglutaminase (TGase); TGase inhibitory activity value, Table 1, listed as 6006): 98
c1ccc(B(OCCN2CCN(CCOB(c3ccccc3)c3ccccc3)CC2)c2ccccc2)cc1 [Example 239, bis(diphenyl piperazino-O,O-ethoxyborane)] | 0.94 | 126 | – | – | –
NCCNCCOB(c1ccc(COCc2ccc(B(OCCNCCN)c3ccc(F)c(F)c3)cc2)cc1)c1ccc(F)c(F)c1 [Example 419, bis(4,4′-(3,4-difluorophenyl-N-aminoethylaminoethoxyboryl)benzyl)ether] | 0.90 | 140 | 1.02 | 108 | x-Fold [1, 6]: 0.90; TGase activity remaining (% of DMSO control = 100) (transglutaminase (TGase); [7]): 140
NCCOB(c1ccccc1)c1cccc(B(OCCN)c2ccccc2)c1 [Example 120, 1,3-bis(phenyl-2-aminoethoxyboryl)benzene] | 1.08 | 88 | 1.08 | 88 | –
NC(CCC(=O)O)C(=O)OB(c1ccccc1)c1ccc(Oc2ccc(B(OC(=O)C(N)CCC(=O)O)c3ccc(CO)cc3)cc2)cc1 (centres unmarked) [Example 393, (4-(phenyl-glutamic acid boryl)phenyl)(4′-(hydroxymethylphenyl-glutamic acid boryl)phenyl)ether] | 0.56 | 117 | – | – | –
NCC(=O)OB(c1ccccc1)c1ccc(Oc2ccc(B(OC(=O)CN)c3ccccc3)cc2)cc1 [Example 129, di((phenylglycine-O,N boryl)phenyl)ether] | 0.78 | 101 | – | – | –
Cc1ccc(B(OC(=O)C(N)CCCNC(N)=O)c2ccc(C)c(Cl)c2)cc1Cl (centres unmarked) [Example 287, di(3-chloro-4-methylphenyl)(citrullinate-O,N)borane] | 1.00 | 146 | 1.00 | 146 | –
FC(F)(F)c1ccc(C(OB(c2ccccc2)c2ccc(COCc3ccc(B(OC(c4ccc(C(F)(F)F)cc4)c4ccccn4)c4ccccc4)cc3)cc2)c2ccccn2)cc1 (centres unmarked) [Example 138, bis(2-pyridyl-4-trifluoromethylphenylmethoxyphenylboryl 4-benzyl)ether] | 0.99 | 96 | – | – | –
NCC(CN)OB(c1ccc(Cl)c(F)c1)c1ccc(Cl)c(F)c1 [Example 235] | 1.03 | 80 | 1.03 | 80 | –
Cc1ccc(Cl)cc1B(O)c1cc(Cl)ccc1C [Example 171, di(3-chloro-6-methylphenyl)borinic acid] | 0.71 | 98 | – | – | –
Cc1ccc(B(OCCN2CCCCC2)c2ccc(Oc3ccc(B(OCCN4CCCCC4)c4ccc(C)cc4)cc3)cc2)cc1 [Example 447, bis(4,4′-(tolylpiperadylethoxyboryl)phenyl)ether] | 0.49 | 97 | – | – | x-Fold [1, 6]: 0.49; TGase activity remaining (% of DMSO control = 100) (transglutaminase (TGase); [7]): 97
NCCOB(c1ccccc1)c1ccc(COCCOc2ccc(B(OCCN)c3ccccc3)cc2)cc1 [Example 380, (4-(phenylaminoethoxyboryl)phenoxyethyl)(4-(phenylaminoethoxyboryl)benzyl)ether] | 0.67 | 92 | 0.67 | 92 | –
Nc1ccccc1SB(c1ccccc1)c1ccccc1 [Example 150, diphenyl-2-aminophenylthioborane] | 0 | 2 | 0 | 2 | –
